Measured values published in article PMC8266232, “Design, synthesis, and analysis of antiproliferative and apoptosis-inducing activities of nitrile derivatives containing a benzofuran scaffold: EGFR inhibition assay and molecular modelling study” (Journal of Enzyme Inhibition and Medicinal Chemistry, 2021).

How the values were obtained:
[1] = tested on: HePG2 cells (hepatocellular carcinoma); assay: MTT antiproliferative assay, HePG2; format: cell-based, human; details: Homo sapiens, HepG2, MTT assay, HePG2, triplicate; read-out: In vitro cytotoxicity IC50, HePG2
Procedure: (§1) The in vitro antiproliferative activity of all synthesised compounds was evaluated by an MTT assay according to the reported method[47]^,[48].
(§2) 2. Experimental procedure
(§3) 2.1. Antiproliferative screening
(§4) The in vitro antiproliferative activity of all synthesized compounds was evaluated by an MTT assay according to the reported method using five different human cancer cell lines, including […]
(§5) cervical carcinoma (HeLa), and human prostate cancer (PC-3). The cell lines were obtained from ATCC via a holding company for biological products and vaccines (VACSERA), Cairo, Egypt. The MTT assay is a colorimetric assay used for measuring the cellular growth based on the reduction of the yellow MTT to a purple formazan derivative by mitochondrial succinate dehydrogenase in viable cells. The color intensity of the formazan dye is correlated to the number of viable cells. The […]
(§6) IC50% values were calculated using dose response curves. The percentage of relative cell viability was calculated as (A570 of treated samples)/(A570 of untreated sample) × 100. The cytotoxic activity was defined as the concentration of the compound that caused 50% growth inhibition compared with the growth of an untreated cell. […]

[2] = tested on: PC3 cells (human prostate carcinoma); assay: MTT antiproliferative assay, PC3; format: cell-based; details: PC-3, PC3, triplicate, read-out: In vitro cytotoxicity IC50, PC3
Procedure: as §1, §2, §3, §4, §5, §6

[3] = tested on: human caspase-3 (active) in MCF-7 cells; assay: Caspase-3 ELISA in MCF-7 cells; format: cell-based
Procedure: Caspases are critical mediators of programmed cell death, that is, apoptosis. Caspase-3 is important in processes involving dissociation of the cell and the formation of the apoptotic element; therefore, it is regarded as one of the best biochemical hallmarks of apoptosis. […] The concentration of active caspase-3 was measured using the ELISA technique. In addition, the fluorescence density produced by the tested compounds is illustrated in Figure 4. […] The level of caspase-3 increased 5.7-fold compared to the control. Moreover, a considerable 7.3-fold increase in the caspase-3 level was detected following the treatment of the MCF-7 cells with compound 11. The bioluminescent intensities of caspase-3 indicated the apoptotic activity of compounds 3 and 11.
Afterward, measure luminescence using the
tested in triplicates.[36-38].
active caspase-3 [49]. […] The tested
Subsequently, 100 µL of an
incubated for 30 min at room temperature.
chromogen. […] The intensity of the resulting colored

[4] = tested on: HCT-116 cells (colorectal carcinoma); assay: MTT antiproliferative assay, HCT-116; format: cell-based, human; details: Homo sapiens, HCT-116, MTT assay, HCT-116, triplicate; read-out: In vitro cytotoxicity IC50, HCT-116
Procedure: as §1, §2, §3, §4, §5, §6

WI38 normal cell = assay: MTT cytotoxicity on normal fibroblast cells; format: cell-based; details: Homo sapiens, WI-38; MTT assay, non tumour normal cell WI38
MCF-7 cells [5] = assay: Cell cycle analysis by PI flow cytometry, MCF-7; details: MCF-7, 10 µM, 24 h
Procedure: (§7) A comparison was made to the control (DMSO) and reference (gefitinib).
Cell cycle analysis and induction of apoptosis
Flow cytometry analysis of the cell cycle distribution
incubation period, the cells were collected, centrifuged, and ﬁxed with ice-cold ethanol (70%). The cells were subsequently treated with a buffer containing RNAse A and 0.1% Triton X-100, and stained
with PI. The cells were compared with the control, which was treated with DMSO. The DNA content
was measured by flow cytometry [50-52].

[6] = tested on: HeLa cells (cervical carcinoma); assay: MTT antiproliferative assay, HeLa; format: cell-based, human; details: Homo sapiens, triplicate, read-out: In vitro cytotoxicity IC50, HeLa
Procedure: as §1, §2, §3, §4, §5, §6

[7] = tested on: MCF-7 cells (human breast adenocarcinoma); assay: MTT antiproliferative assay, MCF-7; format: cell-based; details: Homo sapiens, MCF7, MTT assay, MCF-7, triplicate; read-out: In vitro cytotoxicity IC50, MCF-7
Procedure: as §1, §2, §3, §4, §5, §6

EGFR TK = biological target: T1, EGFR TK (Homo sapiens, UniProt P00533); assay: EGFR TK inhibition assay (luminescent, Kinase-Glo MAX); format: biochemical
T1 construct: add 20 μl of diluted EGFR enzyme and incubate at 30°C for 40
T1 sequence (P00533 25-1210): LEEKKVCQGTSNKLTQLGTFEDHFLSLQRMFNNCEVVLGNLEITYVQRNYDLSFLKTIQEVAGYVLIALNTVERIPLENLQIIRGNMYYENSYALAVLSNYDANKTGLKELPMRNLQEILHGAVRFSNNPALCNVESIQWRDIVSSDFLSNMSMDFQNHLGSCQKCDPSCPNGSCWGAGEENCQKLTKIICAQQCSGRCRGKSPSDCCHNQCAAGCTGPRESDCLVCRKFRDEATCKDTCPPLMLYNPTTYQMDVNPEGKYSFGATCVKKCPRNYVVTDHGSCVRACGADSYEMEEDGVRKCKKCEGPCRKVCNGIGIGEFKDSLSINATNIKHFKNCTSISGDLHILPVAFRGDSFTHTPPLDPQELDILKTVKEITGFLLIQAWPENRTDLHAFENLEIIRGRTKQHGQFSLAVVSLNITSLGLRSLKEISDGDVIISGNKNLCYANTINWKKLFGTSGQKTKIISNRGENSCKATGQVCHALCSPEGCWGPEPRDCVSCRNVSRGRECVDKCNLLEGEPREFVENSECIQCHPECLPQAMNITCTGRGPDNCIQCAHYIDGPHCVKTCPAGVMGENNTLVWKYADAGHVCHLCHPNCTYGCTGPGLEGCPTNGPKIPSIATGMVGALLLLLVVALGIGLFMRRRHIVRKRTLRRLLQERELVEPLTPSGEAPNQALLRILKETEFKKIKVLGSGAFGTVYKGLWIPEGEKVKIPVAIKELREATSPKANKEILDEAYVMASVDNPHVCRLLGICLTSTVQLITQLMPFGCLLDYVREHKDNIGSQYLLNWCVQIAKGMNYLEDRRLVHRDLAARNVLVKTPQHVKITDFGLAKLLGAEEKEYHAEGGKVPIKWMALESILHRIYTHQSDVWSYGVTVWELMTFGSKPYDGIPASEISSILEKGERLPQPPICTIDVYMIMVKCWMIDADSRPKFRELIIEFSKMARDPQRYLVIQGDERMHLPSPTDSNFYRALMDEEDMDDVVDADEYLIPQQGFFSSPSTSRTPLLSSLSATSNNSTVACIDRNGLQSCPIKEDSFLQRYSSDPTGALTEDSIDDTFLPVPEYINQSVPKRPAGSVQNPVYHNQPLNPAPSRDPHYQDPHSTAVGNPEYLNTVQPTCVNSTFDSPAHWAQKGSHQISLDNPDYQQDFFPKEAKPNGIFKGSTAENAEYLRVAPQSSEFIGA
Procedure: 2.2. Epidermal growth factor inhibition assay
In vitro luminescent EGFR tyrosine kinase assay, using Kinase-Glo® MAX as a detection reagent using DP‐Glo™ reagent that measures the adenosine diphosphate (ADP) formed from a kinase reaction, were performed; this luminescent signal positively correlates with ADP amount and kinase activity. In 17 μl of distilled water, 6 μl of Kinase assay buffer and 1 μl ATP and 1 μl PTK substrate were mixed (master mixture). In every well, mix 20 μl of the master mixture and 5 μl of Inhibitor solution (Test Inhibitor) for positive control, and use 5 μl of the same solution without inhibitor (Inhibitor buffer) as the blank solution; add 20 μl of diluted EGFR enzyme and incubate at 30°C for 40

MCF-7 cells [8] = assay: Annexin V-FITC/PI apoptosis assay, MCF-7; details: MCF-7, 10 µM, 24 h
Procedure: as §7
The cell line samples were analysed using FACSCalibur flow cytometer.
with PI. The cells were compared with the control, which was treated with DMSO.
Analysis of cellular apoptosis
concentration, respectively, and then incubated for 24 h. Following incubation, 1 –5 × 10^5 cells were
harvested and suspended in 500 µ L of the binding buffer, 5 µ L of annexin V-FITC, and 5 µL of PI.
annexin V-FITC conjugate is specially engineered to produce an enhanced fluorescence signal and
photostability. The annexin V-FITC kit included annexin V-FITC for detecting apoptosis as well as PI
for detecting necrosis. Thus, apoptosis and necrosis could be effectively differentiated. Detection and
analysis of the annexin V-FITC binding by flow cytometry was conducted using a FITC signal
detector (typically FL1). PI staining was evaluated by a phycoerythrin emission signal detector

N#Cc1c(-c2cc3ccccc3o2)ccnc1NCCc1ccccc1 [Compound 11, 4-(Benzofuran-2-yl)-2-(phenethylamino)nicotinonitrile]
IC50 [1]: 20.4 ± 1.6 µM | IC50 [2]: 18.8 ± 1.5 µM | Caspase-3 Conc. ([3]; ELISA, control 60.7): 440.08 pg/mL | Caspase-3 level, Fold ([3]; compared to the control): 7.3 fold | IC50 [4]: 46.1 ± 2.7 µM | IC50 (WI38 normal cell): 94.5 ± 5.13 µM | %Pre/G1 (MCF-7 cells [5]; control 0.55, '% Apoptosis' in Figure 6A): 16.25% | %G2/M (MCF-7 cells [5]; control 3.66): 15.28% | %S (MCF-7 cells [5]; control 27.37): 21.36% | %G0/G1 (MCF-7 cells [5]; control 66.42): 47.11% | IC50 [6]: 32.1 ± 1.9 µM | IC50 [7]: 14.6 ± 1.3 µM | IC50 (EGFR TK): 0.81 µM | Necrosis (MCF-7 cells [8]; control 0.15): 1.23% | Early apoptosis (MCF-7 cells [8]; control 0.16): 6.89% | Late apoptosis (MCF-7 cells [8]; control 0.24): 8.13% | Apoptosis, Total (MCF-7 cells [8]; control 0.55): 16.25%
